Laboratory results reported in patent publication US20040253243A1, “Aptamer therapeutics useful in ocular pharmacotherapy” (priority 2003, published 2004).
{PEG30K} = 30 kDa polyethylene glycol, attached through the amine; {3T} = T cap; {PEG20K} = 20 kDa polyethylene glycol; [invdT] = inverted (3'-3') thymidine; {NH2} = amine group; m = 2'-O-methyl; r = 2'-OH (RNA); f = 2'-fluoro

What was measured:
TGFβ2 [1] = target: T1, TGFβ2 (Homo sapiens, UniProt P61812); experiment: Dot blot binding of doped reselection aptamers to TGFβ2; design: For bio-chemical characterization of these aptamers, two forms of mature TGFβ2 were generated, native and N-terminal his-tagged versions, in E. coli; conditions: CW128_103
T1 sequence (P61812 303-414 limits assumed): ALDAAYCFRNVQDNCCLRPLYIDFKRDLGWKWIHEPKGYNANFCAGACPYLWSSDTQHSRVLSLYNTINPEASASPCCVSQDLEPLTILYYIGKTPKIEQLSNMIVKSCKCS
Description: TGFβ2 was serially diluted in DPBS containing 0.2 mg/ml BSA and 0.2 mg/ml tRNA. ^32P-labeled RNA (<20 pM) were incubated with TGFβ2 at room temperature for 30 min. Samples were pipetted with a multichannel pippetor onto a multiwell manifold holding layers of pre-wetted 0.45 micron nitrocellulose, hybond membrane, 3MM filter paper (the order is from top to bottom), aspirated, and washed 3× with DPBS (containing tRNA). All three filters were air dried, exposed to phosphorimager plate, analyzed by ImageQuant.

[2] = Pharmacokinetics via subconjunctival administration; type: in vivo, mice; conditions: for AUC (0-t) / Cmax / MRT / TLAST / t1/2 / tmax / Vd: subconjunctival, 1 mg/eye bilaterally; for detection in the aqueous humor: after subconjunctival administration
Description: A pharmacokinetic study was performed to determine the pharmacokinetics of ARC81, ARC117 and ARC119, TGFβ2 aptamers having the sequences of SEQ ID NOs:4, 9 and 11, respectively), via subconjunctival administration in mice. These aptamers were formulated at a concentration of 10 mg/ml. Samples were collected at 0, 0.5, 1, 2, 6, 12, 24, 48 and 96 hours post-administration. FIGS. 21A, 21B and 21C show the aqueous humor and/or plasma concentration of each aptamer (in nM) through 50 hours post dose via subconjunctival administration.

human TGFβ2 = target: T2, human TGFβ2 (Homo sapiens, UniProt P61812); experiment: MLEC proliferation assay (reversal of TGFβ2-mediated inhibition, BrdU); type: cell-based
T2 construct: two forms of mature TGFβ2 were generated, native and N-terminal his-tagged versions, in E. coli; made in house; host or cells: E. coli; added as soluble protein to MLEC
T2 sequence (P61812 303-414): T1 sequence (P61812 303-414 limits assumed)
Description: MLECs were plated at 2,000 cells per well and incubated at 37° C. for 4 hours. Aptamer and TGFβ2 were added at the indicated concentrations for 16 hours at 37° C. Cell proliferation was measured using BrdU incorporation. BrdU assay was performed as recommended by the manufacturer (Roche Diagnostics).
MLEC Assay. The mink lung epithelial cell proliferation assay is performed over two days. On day 1:1) media is aspirated off from Mink Lung Epithelial Cells (MLEC); 2) the MLEC are washed with 10 ml 1×PBS; 3) 3 ml Trypsin is added and Trypsinize for 3 min at 37° C.; 4) quench with 10 ml 0.5% FBS media; 5) spin at 1000 rpm for 3.30 min; 6) aspirate off supernatant; 7) resuspend pellet in 10 ml 0.5% FBS media; 8) Count 10 μl cell suspension; 9) adjust cell density to 80,000 cells/ml; 10) add 50 μl of cells/well to black bottomed 96-well plates (4000 cells/well); pipet up and down during plating process to avoid settling of cells and uneven plating; 11) incubate cells at 37° C. in 5% CO2 for 4 hrs to allow adherence of cells; 12) add 25 μl of aptamer (or media, or other test reagent, such as for example, an antibody), preferably the outer wells are not used for treated cells; 13) add 25 μl of TGFβ2 (typically 25 pg/ml); and 14) incubate cells at 37° C. in 5% CO2 overnight.
On day 2:1) mix 20 μl BrdU with 2 ml 0.5% FBS media; 2) add 10 μl of BrdU mixture/well; 3) incubate cells at 37° C. in 5% CO2 for 3 hrs; 4) remove media and blot plates dry on paper towels; 5) add 200 μl/well FixDenat solution and incubate for 30 min at room temperature (RT); 6) remove FixDenat solution and blot plates dry on paper towels; 7) add 100 μl /well anti-BrdU POD solution and incubate for 90 min at RT; 8) remove anti-BrdU POD solution and blot plates dry on paper towels; 9) wash plates 3× with […] washing solution with 5 min RT incubations and blot plates dry on paper towels; 10) add 100 μl /well substrate solution and incubate for 3 min at RT in dark; and 11) read plates using PSP Luciferace 1 program on TopCount (Packard Bioscience Co., Downers Grove, Ill.).

TGFβ2 [3] = target: T1, TGFβ2; experiment: Nitrocellulose-filter partitioning binding of 32P-labeled aptamer to TGFβ-2 protein; design: A synthetic polynucleotide encoding full length human TGFβ2 mature protein was cloned into pRSET E. coli expression vector; made in house
Description: Dissociation constants for the binding of aptamers to purified human or rodent TGFβ-2 protein were determined by nitrocellulose-filter partitioning using ^32P-labeled RNA. In vitro transcribed RNA was treated with calf-intestinal alkaline phophatase (New England Biolabs) to remove 5′-triphosphates, then radio-labeled by incubation with γ-^32P-ATP and T4 polynucleotide kinase (New England Biolabs). Unincorporated label was removed by gel-filtration, and the RNAs were further purified by polyacrylamide gel electrophoresis (PAGE). Purified ^32P-labeled aptamer in water was refolded just prior to use by heating for 3 min at 95° C., followed by a 10 minute room-temperature incubation in binding buffer (50 mM Hepes, pH 7.4, 1 mM MgCl2, 1 mM CaCl2, 3 mM KCl, 140 mM NaCl, 0.1 mg/ml BSA, 0.01 mg/ml tRNA). The binding reactions (100 μL) were initiated by the addition of aptamer (≦0.1 nM) to excess TGFβ-2 protein (0.2-100 nM), followed by 10-30 minute equilibration at room temperature.
Nitrocellulose-filter partitioning was performed on Minifold® I, 96-well Dot-Blot manifolds (Schleicher & Schuell). Protein-bound aptamer and residual free aptamer were captured, respectively, on pre-wetted Protran nitrocellulose (Schleicher & Schuell) and Hybond-P polyvinylidene difluoride (Amersham Biosciences) filters by vacuum aspiration, and quantified by PhosphorImager (Amersham Biosciences). The proportion of protein-bound aptamer at each TGFβ-2 concentration was plotted as the ratio of counts-per-minute on the Protran nitrocellulose filter (CPMNC) to the sum of CPM on the Protran and Hybond-P filters (CPMtotal). Estimates of dissociation constants (KD) were obtained from a fit of the concentration of TGFβ-2 (i.e., [TGFβ-2])-dependent data to a standard binding isotherm: CPMNC/CPMtotal=Cmax/(1+KD/[TGFβ2]total), where Cmax equals the maximum observed value of CPMNC/CPMtotal at saturating [TGFβ-2], likely reflecting the proportion of properly-folded aptamer that is competent to recognize TGFβ-2.

PDGF AB and BB = experiment: PDGF binding (Kd); design: species or system human; conditions: read-out: Kd, PDGF AB and BB
Sequence of PDGF AB and BB (P01127 82-190 limits assumed): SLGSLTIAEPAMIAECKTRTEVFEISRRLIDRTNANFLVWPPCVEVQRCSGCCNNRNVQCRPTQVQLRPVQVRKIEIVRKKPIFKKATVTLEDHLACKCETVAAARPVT

AfCAGAGfUAfUfUAfUAGAGfUAfUGfUAfUAGfCfUAfUAfCfUGfUfC[3T] (ACAGAGUAUUAUAGAGUAUGUAUAGCUAUACUGUC; 2'-fluoro at CU, RNA at AG, 3' {3T}, backbone not given here) [ARC283, minimized S5CR8-45]
Kd (TGFβ2 [1]): 1.27 nM

AfUAGAGfCAfUfUAfUAGAGfUAfUGfUAfUAGfCfUAfUAfCfUAfU[3T] (AUAGAGCAUUAUAGAGUAUGUAUAGCUAUACUAU; 2'-fluoro at CU, RNA at AG, 3' {3T}, backbone not given here) [CW128.10.F, minimized AMX(71)_C11]
Kd (TGFβ2 [1]): 3.66 nM

5′-[PEG30K]-NH2-mGmGmGmGfUfUAfUfUmAfCmAmGmAmGfUfCfUGfUAfUAmGfCfUmGfUmAfCfCfC-3T-3′ (GGGGUUAUUACAGAGUCUGUAUAGCUGUACCC; sugars from the 5' end mmmmffrffmfmmmmfffrfrfrmffmfmfff, 5' {PEG30K}-{NH2}, 3' {3T}, backbone not given here) [ARC119]
AUC (0-t) ([2]; Aq Humour): 133.2 nM·h | Cmax ([2]; Aq Humour): 28.4 nM | MRT ([2]; Aq Humour): 12.80 h | TLAST ([2]; Aq Humour): 48 h | t1/2 ([2]; Aq Humour): 17.52 h | tmax ([2]; Aq Humour): 0.5 h | AUC (0-t) ([2]; PLASMA): 13,380.5 nM · h | Cmax ([2]; PLASMA): 721 nM | MRT ([2]; PLASMA): 17.28 h | TLAST ([2]; PLASMA): 48 h | Vd ([2]; PLASMA): 137 mL | t1/2 ([2]; PLASMA): 6.94 h | tmax ([2]; PLASMA): 12 h | detection in the aqueous humor [2]: detected in the aqueous humor

5′-mGmGmAmGmGfUfUAfUfUmAfCmAmGmAmGfUfCfUGfUAfUAmGfCfUmGfUmAfCfUfCfc-3T-3′ (GGAGGUUAUUACAGAGUCUGUAUAGCUGUACUCC; sugars from the 5' end mmmmmffrffmfmmmmfffrfrfrmffmfmffff, 3' {3T}, backbone not given here) [ARC79]
IC50 (human TGFβ2; read-out: cell IC50): 10 nM | Kd (TGFβ2 [3]; read-out: KD): 1 nM

5′-TdGdGdGdAdGdGdGdCdGdCdGTTdCTTdCdGTdGdGTTdAdCTTTTdAdGTdCdCdCdG-3T-3′ (TGGGAGGGCGCGTTCTTCGTGGTTACTTTTAGTCCCG; 3' [invdT], sugars by position and backbone not given here; further chemistry not fully specified) [ARC123]
Kd (PDGF AB and BB): 0.1 nM

5′-TdAdCTdCdAdGdGdGdCdAdCTdGdCdAdAdGdCdAdATTdGTdGdGTdCdCdCdAdATdGdGdGdCTdGdAdGTdA-3T-3′ (TACTCAGGGCACTGCAAGCAATTGTGGTCCCAATGGGCTGAGTA; 3' [invdT], sugars by position and backbone not given here; further chemistry not fully specified) [ARC125]
Kd (PDGF AB and BB): 0.1 nM

5′-NH2-GGAGGfUfUAfUfUAfCAGAGfUfCfUGfUAfUAGfCfUGfUAfCfUfCfC-3T-3′ (GGAGGUUAUUACAGAGUCUGUAUAGCUGUACUCC; 2'-fluoro at CU, RNA at AG, 5' {NH2}, 3' {3T}, backbone not given here) [ARC78]
inhibition of the antiproliferative effects of TGFβ2 (human TGFβ2; 50 pg/ml of TGFβ2, BrdU incorporation): inhibit the antiproliferative effects of 50 pg/ml of TGFβ2 | Kd (TGFβ2 [3]; 32P-labeled aptamer, nitrocellulose-filter partitioning, fit to Equation 1, read-out: Kd): 4 nM

5′-dCdAdCdAdGdGdCTdAdCdGdGdCdAdCdGTdAdGdAdGdCdATdCdAdCdCdATdGdATdCdCTdGTdG-3T-3′ (CACAGGCTACGGCACGTAGAGCATCACCATGATCCTGTG; 3' [invdT], sugars by position and backbone not given here; further chemistry not fully specified) [ARC124]
Kd (PDGF AB and BB): 0.1 nM

GAfCAGAGfUAfUfUAfUAGAGfUAfUGfUAfUAGfCfUAfUAfCfUGfU[3T] (GACAGAGUAUUAUAGAGUAUGUAUAGCUAUACUGU; 2'-fluoro at CU, RNA at AG, 3' {3T}, backbone not given here) [ARC284, minimized S5R8-45]
Kd (TGFβ2 [1]): 0.11 nM

5′-[PEG20K]-NH2-mGmGmGmGfUfUAfUfUmAfCmAmGmAmGfUfCfUGfUAfUAmGfCfUmGfUmAfCfCfC-3T-3′ (GGGGUUAUUACAGAGUCUGUAUAGCUGUACCC; sugars from the 5' end mmmmffrffmfmmmmfffrfrfrmffmfmfff, 5' {PEG20K}-{NH2}, 3' {3T}, backbone not given here; PEG attached through 5' amine linker) [ARC117]
AUC (0-t) ([2]; Aq Humour): 87.6 nM·h | Cmax ([2]; Aq Humour): 22.9 nM | MRT ([2]; Aq Humour): 3.62 h | TLAST ([2]; Aq Humour): 24 h | t1/2 ([2]; Aq Humour): 4.33 h | tmax ([2]; Aq Humour): 1 h | AUC (0-t) ([2]; PLASMA): 1,122.1 nM · h | Cmax ([2]; PLASMA): 145 nM | MRT ([2]; PLASMA): 9.22 h | TLAST ([2]; PLASMA): 48 h | Vd ([2]; PLASMA): 1760 mL | t1/2 ([2]; PLASMA): 7.40 h | tmax ([2]; PLASMA): 6 h | detection in the aqueous humor [2]: detected in the aqueous humor

AAGGAGfUAfUfUAfUAGAGfUAfUGfUAfUAGfCfUAfUAfCfCAfU[3T] (AAGGAGUAUUAUAGAGUAUGUAUAGCUAUACCAU; 2'-fluoro at CU, RNA at AG, 3' {3T}, backbone not given here) [ARC281, minimized S5CR12-15]
Kd (TGFβ2 [1]): 1.42 nM

AGGGAAfUAfUfUAfUAGAGfUAfUGfUAfUAGfCfUAfUAfCfCAfU[3T] (AGGGAAUAUUAUAGAGUAUGUAUAGCUAUACCAU; 2'-fluoro at CU, RNA at AG, 3' {3T}, backbone not given here) [ARC282, minimized AMX(71)_A8]
Kd (TGFβ2 [1]): 0.62 nM
